These results are taken from patent publication US20120309734A1, “COMBRETASTATIN DERIVATIVES AND USES THEREFOR” (priority 2009, published 2012).

For orientation: IC50 means the concentration needed to halve the response being measured. Broadly, the inhibition is how much of the control response was suppressed. The GI50 is the concentration at which growth is held to half of that of the control. Read a low GI50 as greater sensitivity of the cells.

A value given as a limit tells only on which side of the number the result lay.

The test system of one experiment is A2780-parental. Briefly: Alamar Blue cell viability assay. The format is cell-based. The following applies: 72 h. On the technique in general: The colour change of resazurin is a common sign of viable cells or microbes.
Experiment [1] concerns HUVECs. Briefly: In vitro tubule formation on matrigel. The format is cell-based, human. The following applies: 50 nM, 6 h. As for the experimental part: FIG. 10 depicts the effect of compound 4 on in vitro tubule formation. HUVECs (1.5×10^6 cells/well) were grown on matrigel-coated 6-well plates for 6 h in the presence of vehicle (0.5% (v/v) ethanol) or 50 nM compound 4. […] The pictures shown in FIG. 10 are representative of three independent experiments. HUVECs seeded onto Matrigel in the presence of vehicle (0.5% (v/v) ethanol) underwent alignment into the capillary-like structures.

Experiment [2] deals with HUVECs. Briefly: VEGF-stimulated transwell migration assay. In kind it is cell-based. The following applies: Homo sapiens, HUVEC; 50 nM, 6 h, 10 ng/ml VEGF. The protocol:
This modified transwell migration assay consisted of an upper and a lower chamber separated by a membrane. Migration of HUVECs from the upper to the lower chamber was stimulated by addition of VEGF to the lower chamber. The effect of compound 4 on this migration was determined by its addition along with VEGF into the lower chamber. Migration was expressed as a percentage of migration in control chambers treated with the vehicle (100%). HUVECs 10,000 cells in […] medium were seeded onto fibronectin-coated […] transwell inserts in 24-well plates containing medium. HUVEC migration was stimulated by the addition of 10 ng/ml VEGF to the lower wells. Vehicle (0.5% (v/v) ethanol) or compound 4 (50 nM) were also added to the lower wells. After 6 h, the upper surfaces of the inserts were swabbed to remove non-migrated cells. Filters containing the migrated cells were stained with 0.5% toulidine blue 0 and 0.5% sodium tetraborate. The cells were solubilised in 0.2% (w/v) SDS in 20 mM Tris-HCl, pH 7.7 and staining quantified as absorbance at 650 nm. […] P-values were determined using a two-tailed Student's paired t-test. A value of P<0.05 was considered to be significant.

The next experiment deals with A2780-ADR (PGP). Briefly: Alamar Blue cell viability assay.
For the next experiment, the system named is HL-60 parental. The experiment can be described thus: Alamar Blue cell viability assay. The format is cell-based. The following applies: Homo sapiens, 72 h.
Experiment [3] deals with breast carcinoma MDA-MB-231 cells. The experiment can be described thus: Transwell migration assay. The following applies: 50 nM, 6 h. In kind it is cell-based, human. As for the experimental part:
FIG. 12 illustrates the migration of breast carcinoma MDA-MB-231 cells across transwell filters in the presence of vehicle (0.5% (v/v) ethanol) or 50 nM compound 4. Migration was expressed as a percentage of migration of vehicle-treated cells (100%). MDA-MB-231 cells (cultured as described supra) were seeded at a density of 2.5×10^4 cells/well onto 24-well Falcon migration inserts (8 μm pore size) in serum-free medium. Inserts were placed into Falcon companion plates containing 20% FBS and either vehicle (0.5% (v/v) ethanol) or 50 nM compound 4 and incubated for 6 h. The upper surfaces of the inserts were swabbed to remove non-migrated cells. Migrated cells on the underside of the membrane were fixed in methanol, stained with Mayers Hematoxylin, dehydrated in methanol and mounted on a glass slide. The number of cells in 5 fields at 10× magnification was counted. […] P-values were determined using a two-tailed Student's paired t-test. A value of P<0.05 was considered to be significant. Incubation for 6 h with compound 4 prevented MDA-MB-231 cell migration by 95.7% (***P<0.0001).

The test system of the next experiment is HL-60-BCRP. Briefly: Alamar Blue cell viability assay.
The test system of experiment [4] is microtubule network of endothelial cells (HUVECs). The experiment can be described thus: Microtubule network immunofluorescence. The following applies: 50 nM, 16 h. The format is cell-based, human. The protocol: FIG. 9 illustrates the effect of compound 4 in destabilising the microtubule network of endothelial cells. HUVECs (0.6×10^5 cell/chamber), grown on 4-chamber glass slides for 24 h were treated with vehicle (0.5% (v/v) ethanol) or 50 nM compound 4 for 16 h. The cells were then fixed in 100% methanol at −20° C., incubated with a monoclonal anti-α-tubulin antibody (Merck Biosciences, Nottingham, UK), followed by a FITC-conjugated anti-mouse antibody (DakoCytomation, Glostrup, Denmark) and then briefly stained with propidium iodide. The chamber partitions were removed from the slides and anti-quenching solution (2 mg/ml p-phenylenediamine in 50:50 glycerol to PBS solution) was applied to the surface of each slide and coverslips mounted. The organisation of the microtubule network and the cellular DNA was visualised using an Olympus IX81 Fluorescent Microscope (Olympus Corporation, Tokyo, Japan) at a magnification of 600×. The photographs illustrated in FIG. 9 are representative of three independent experiments.

For experiment [5], the system named is primary CML cells (BCR-ABL-positive). The experiment can be described thus: Apoptosis in ex vivo CML cells, annexin V staining. The following applies: 72 h. The format is cell-based, human. From the text:
This study is the first pre-clinical evaluation of combretastatins in the treatment of chemotherapy naive and patients with acquired imatinib mesylate resistance (refractory or relapsed disease despite adequate dose and duration). Imatinib mesylate is the first line treatment in BCR-ABL-positive CML chemotherapy. BCR-ABL, a constitutively active protein tyrosine kinase is a product of the Philadelphia chromosome (Ph) translocation t(9;22) and plays a central role in the pathogenesis of CML. […] All cells were treated with a clinically achievable concentration of imatinib mesylate (indicated as STI in FIG. 3) [250 nM]. […] The percentage apoptosis was determined by flow cytometric analysis of annexin-V stained cells.
The percentage of apoptosis in ex-vivo CML cells was determined by annexin V staining. […] Cells were collected by centrifugation at 400×g for 5 min and resuspended in anti-CD-45 diluted 1:50 in RPMI medium. Following a 10 min incubation in the dark at room temperature, cells were centrifuged and washed in Annexin binding buffer (Biosource, Nivelles, Belgium). Cells were again centrifuged and resuspended in Annexin-V-FITC (IQ products, Netherlands) diluted in Annexin binding buffer (1:50). Samples were next incubated in the dark on ice for 15 min. Annexin binding buffer (1 ml) was added to each sample. Samples were collected by centrifugation and resuspended in 0.5 ml of Annexin binding buffer. Cells were read immediately by flow cytometry and analysed by Cellquest software. CML cells were selected and gated based on their low to medium side scatter and low CD45 expression.

A further experiment relates to MALME-3M. The experiment can be described thus: NCI60 cell line screen. The following applies: Homo sapiens.
Another experiment relates to MOLT-4. Briefly: NCI60 cell line screen. The following applies: Homo sapiens.

Protocol for A2780-ADR (PGP): (§1) Three drug resistant cell lines and respective parental cell lines were assessed. […] Western blot analysis confirmed the overexpression of p-glycoprotein and BCRP in respective cell lines.
(§2) Cells were exposed to multiple concentrations of the indicated compound for 72 h. Cell viability was assessed using the Alamar blue assay and respective IC50 values were calculated. The resistance factor (RF) was calculated by dividing the IC50 of the resistant cell line/IC50 of the parental cell line.
(§3) All cells were cultured in RPMI-1640 Glutamax medium supplemented with 10% FCS media, 100 units/ml penicillin and 100 μg/mIstreptomycin. Cells were maintained at 37° C. in 5% CO2 in a humidified incubator.
(§4) The reduction of Alamar Blue is proportional to the number of viable cells. Cells (200 μl) were plated in triplicate in a 96-well plates (K562, 100,000/ml; HL-60, 300,000/ml; A-2780 50,000/ml). A-2780 cells were plated 24 h prior to treatment. Suspension cells were plated in the log phase of growth and treated immediately. The cells were then treated with either medium alone, vehicle (1% ethanol v/v or 0.1% DMSO v/v) or with a range of concentrations of drug [0.001-10 μM]. After 72 h, Alamar Blue was added to each well (10% of final volume) and fluorescence was read using a 96-well fluorometer with excitation at 530 nm and emission of 590 nm. The blank solution consisted of medium and Alamar Blue and the blank solution was used to calibrate the spectrophotometer to zero absorbance. The relative cell viability (%) related to control wells and was calculated by [A]test/[A]control×100 where [A]test is the absorbance of the drug treated cells and [A]control the absorbance of the vehicle control treated cells. Dose response curves were plotted and IC50 values (concentration of drug resulting in 50% reduction in cell survival) were obtained using the commercial software package Prism (GraphPad Software, Inc., La Jolla, USA). Experiments were performed in triplicate on at least three separate occasions.
Protocol for A2780-parental: as §2
(§5) A2780-parental and A2780-ADR resistant cells were provided by the Beatson Institute of Cancer Research, Glasgow. […] All cells were cultured in RPMI-1640 Glutamax medium supplemented with 10% FCS media, 100 units/ml penicillin and 100 μg/mIstreptomycin. Cells were maintained at 37° C. in 5% CO2 in a humidified incubator.
as §4
Protocol for HL-60 parental: as §2, §5, §4
Protocol for HL-60-BCRP: as §1, §2, §3, §4

Take `COc1ccc(C2C(c3ccccc3)C(=O)N2c2cc(OC)c(OC)c(OC)c2)cc1O` (centres unmarked) [Compound 4, 4-(3-Hydroxy-4-methoxyphenyl)-3-phenyl-1-(3,4,5-trimethoxyphenyl)-azetidin-2-one]: the IC50 in the experiment with A2780-parental was found to be 23.3 nM; in the experiment on A2780-ADR (PGP) (A2780 ADR, 72 h) it was 10.4 nM; in the experiment with HL-60 parental, 17.7 nM; in the experiment with HL-60-BCRP (Homo sapiens, 72 h) it was 25.3 nM. In addition, the “in vitro tubule formation” value with HUVECs [1] was “prevented spontaneous in vitro tubule formation”. Moreover, the inhibition at 0.05 µM with HUVECs [2] came out at 74%. Moreover, the RF in the experiment with A2780-ADR (PGP) (IC50 A2780-ADR (PGP) / IC50 A2780-parental) is listed as 0.5; with HL-60-BCRP (IC50 HL-60-BCRP / IC50 HL-60 parental) it was 1.4. In experiment [3], the “prevention of MDA-MB-231 cell migration” value is reported as 95.7%. Also, the “effect on tubulin cytoskeleton” value in [4] was “gross morphological changes in their tubulin cytoskeleton typical of depolymerising agents”. For the same molecule, in experiment [5] (250 nM each, patient samples), the “apoptosis induction compared with imatinib mesylate” value is listed as “more effective inducers of apoptosis than imatinib mesylate”. Also, the “apoptosis in primary CML cells” value in [5] (250 nM, chemotherapy naïve (4 samples) and imatinib mesylate resistant (2 samples)) was “induced apoptosis”.
Take `COc1ccc(C2C(c3ccccc3)C(=O)N2c2cc(OC)c(OC)c(OC)c2)cc1` (centres unmarked) [Compound 8, 4-(4-Methoxy-phenyl)-3-phenyl-1-(3,4,5-trimethoxy-phenyl)-azetidin-2-one]: the GI50 is more than 100000 nM in the experiment on MALME-3M and 31.6 nM with MOLT-4.
